pEC50: −log10 of the molar value.
System: HCV Huh-luc/neo-ET replicon cells
Assay: Luciferase-Based HCV Replicon Assay (EC50 (1b))
Format: cell-based
Conditions: Hepatitis C virus, 72 hours exposure, luciferase activity
Method in brief: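 Replicon cells seeded, then exposed 24 h later to a compound concentration series in triplicate for 72 h. Luciferase luminescence read; % inhibition vs no-compound control, with 100 nM BILN-2061 as background, used to derive EC50 (1b).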

CS(=O)(=O)NCc1csc2c1S(=O)(=O)N=C(C1=C(O)[C@@H]3CCC[C@@H]3N(Cc3ccsc3)C1=O)N2 [Example 127, (4aR,7aS)-N-[3-(4-Hydroxy-2-oxo-1-thiophen-3-ylmethyl-2,4a,5,6,7,7a-hexahydro-1H-[1]pyrindin-3-yl)-1,1-dioxo-1,4-dihydro-1λ^6-thieno[2,3-e][1,2,4]thiadiazin-7-ylmethyl]-methanesulfonamide]
pEC50: 7.70 to 8.30

CC(C)CCN1C(=O)C(C2=NS(=O)(=O)c3c(CNS(C)(=O)=O)csc3N2)=C(O)[C@@H]2CCC[C@@H]21 [Example 128, (4aR,7aS)-N-{3-[4-Hydroxy-1-(3-methyl-butyl)-2-oxo-2,4a,5,6,7,7a-hexahydro-1H-[1]pyrindin-3-yl]-1,1-dioxo-1,4-dihydro-1λ^6-thieno[2,3-e][1,2,4]thiadiazin-7-ylmethyl}-methanesulfonamide]
pEC50: 7.00 to 7.70

CC(C)(C)CCN1C(=O)C(C2=NS(=O)(=O)c3c(CNS(C)(=O)=O)csc3N2)=C(O)[C@@H]2CCC[C@@H]21 [Example 129, (4aR,7aS)-N-{3-[1-(3,3-Dimethyl-butyl)-4-hydroxy-2-oxo-2,4a,5,6,7,7a-hexahydro-1H-[1]pyrindin-3-yl]-1,1-dioxo-1,4-dihydro-1λ^6-thieno[2,3-e][1,2,4]thiadiazin-7-ylmethyl}-methanesulfonamide]
pEC50: 7.70 to 8.30
